The values below come from article PMC6429585, “Synthesis, Microtubule-Binding Affinity, and Antiproliferative Activity of New Epothilone Analogs and of an EGFR-Targeted Epothilone-Peptide Conjugate” (International Journal of Molecular Sciences, 2019).

One data set deals with human cancer cells. More on the design: method as in PMID 7757983, PMID 8999970. Particulars: cited from earlier work.
For a further data set, the system named is A431 cells. The data set is described as follows: cells. Format: cell-based, human. Particulars: 72 h incubation, mean of three experiments ± SD; read-out: IC50 A431. The protocol:
(§1) Experiments were performed in RPMI (SW480 cells) or DMEM (HEK293 and A431 cells) medium (Gibco) supplemented with 2 mM glutamine, 10% fetal bovine serum, 100 IU/mL penicillin, 100 µg/mL streptomycin, and 1 µg/mL amphotericin B (all from Sigma) at 37 °C and 5% CO2. Cells were seeded into 96-well microtiter plates and compounds were added in DMSO in serial dilutions in triplicate. The final DMSO (dimethylsulfoxide) concentration was 0.1%. After 72 h, a WST-1 reagent was added and the absorption was measured at 450 nm with a plate reader after 30 min to 4 h. The percentage of viable cells was calculated based on vehicle-treated cells and was plotted in GraphPadPrism. At least three independent experiments were performed.
(§2) A431 cells were obtained from CLS. The other cell lines were available in the laboratory. WST-1 was purchased from Roche.

The subject of the next data set is HEK293 cells. Briefly: cells. The conditions noted are these: 72 h incubation, mean of three experiments ± SD; read-out: IC50 HEK293. Format: cell-based, human. The protocol:
as §1, §2

For another data set, the system named is SW480 cells. The data set is described as follows: cells. Format: cell-based, human. Particulars: 72 h incubation, mean of three experiments ± SD; read-out: IC50 SW480. On the procedure:
as §1, §2

Data set [1] is described as follows: Stability in complete cell culture medium (RP-HPLC). Format: in vitro ADME. The conditions noted are these: bovine, complete cell culture medium (RPMI with 10% FBS); 8.6 μM solution in RPMI with 10% FBS, 3 days, 37 °C; read-out: degradation in cell culture medium. On the procedure: The stability of the epothilone-GE11 conjugate 4 in complete cell culture medium was evaluated under conditions resembling those encountered in the cytotoxicity assays. Thus, an 8.6 μM solution of 4 in RPMI with 10% FBS was incubated for 3 days at 37 °C and subsequently analyzed by RP-HPLC. Only minor degradation of 4 (<10%) was observed under these conditions (data not shown).
Synthesis, Microtubule-Binding Affinity and Antiproliferative Activity of New Epothilone Analogs and of an EGFR-Targeted Epothilone-Peptide
Fabienne Zdenka Gaugaz, Andrea Chicca, Mariano Redondo, Isabel Barasoain, José Fernando Díaz, and Karl-Heinz Altmann*
SI.1. EGFR Expression Quantification
EGFR expression levels were determined by treating cells with 1 µg/ml Cetuximab or human IgG isotype antibody and staining with a secondary Alexa Fluor 647 goat anti-human IgG.[49] The fluorescence was quantified by FACS on a FACSCanto device with a FACSDiva software and later analyzed with FlowJo (Fig. S1). […]
Figure S1: Relative quantification of EGF receptors by FACS. […]
The stability of 4 in cell culture medium was evaluated by analytical RP-HPLC. […] The mixture was centrifuged and 10 µL of the supernatant were analyzed by analytical HPLC: H2O with 0.1% TFA (A) / acetonitrile/H2O 8/2 with 0.05% TFA (B). […]

Data set [2] is described as follows: Glutathione cleavage assay (reductive disulfide cleavage, RP-HPLC). Format: physicochemical. Particulars: 10 mM GSH. The protocol:
The reductive cleavage of conjugate 4 was analyzed under conditions mimicking those found in the endosome and the cytoplasm of cancer cells. Endosome-like conditions were assumed to be reproduced by a 10 mM solution of glutathione (GSH) in acetate and phosphate buffer pH 4.9; cytoplasm-like conditions entailed 10 mM GSH in phosphate buffer pH 7.4.
For cytoplasm-like conditions, 100 µL of a […] solution of conjugate 4 in degassed 100 mM phosphate buffer pH 7.4 were diluted with 400 µL of a degassed phosphate buffer and 500 µL of 20 mM glutathione in 100 mM phosphate buffer pH 7.4. Aliquots of 80 µL were removed at predefined time points, and the reaction was quenched with one volume of 10% metaphosphoric acid, giving a pH of 1 approximately. Fifty microliters of this solution were analyzed by analytical RP-HPLC. The same protocol was used for cleavage under endosome-like conditions, except that the glutathione solution was prepared in a 100 mM acetate buffer at pH 4.8, and the same buffer was also used to dilute the conjugate solution in a 100 mM phosphate buffer at pH 7.4. The final pH of the cleavage solution was 4.9.
Analytical RP-HPLC: H2O with 0.1% TFA (A)/acetonitrile/water 8/2 with 0.05% TFA (B). Linear gradient from 5% B to 80% B over 30 min. The percentage of remaining conjugate in the solutions was plotted against time (Figure 3). Analysis of the cleavage solutions by LC/MS provided information of the fractions of the various components in the redox mixture.
Figure 3 Kinetics of glutathione (GSH)-mediated reduction of epothilone-peptide conjugate 4 (173 µM 4, 10 mM GSH, pH 4.9 (endosome-like conditions), triangles, or pH 7.4 (cytoplasm-like conditions), circles). Conjugate 4 was added to the respective GSH solutions as a solution in phosphate buffer pH 7.4 at room temperature, to reach a total concentration of 173 μM. Samples were quenched at different time points with 10% metaphosphoric acid and analyzed by RP-HPLC. […]

SMILES strings stand for the structures. Like-named read-outs stand apart in the source and are kept apart here.

Take `C/C(=C\c1csc(C)n1)[C@@H]1C[C@@H]2O[C@]2(C)CCC[C@H](C)[C@H](O)[C@@H](C)C(=O)C(C)(C)[C@@H](O)CC(=O)O1` [Epo B, Epothilone B]: in the data set on human cancer cells, the “IC50 values for most cell lines” value is reported as “sub-nanomolar”.
In the case of `CC[C@H](C)[C@H](NC(=O)[C@@H](NC(=O)[C@H](CC(N)=O)NC(=O)[C@H](CCC(N)=O)NC(=O)[C@@H]1CCCN1C(=O)[C@@H](NC(=O)[C@H](Cc1ccc(O)cc1)NC(=O)CNC(=O)[C@H](Cc1ccc(O)cc1)NC(=O)[C@H](Cc1c[nH]c2ccccc12)NC(=O)[C@H](Cc1c[nH]cn1)NC(=O)[C@H](Cc1ccc(O)cc1)NC(=O)[C@@H](N)CSSCCn1c(C)nc2cc([C@@H]3C[C@@H]4C[C@H]4CCC[C@H](C)[C@H](O)[C@@H](C)C(=O)C(C)(C)CCC(=O)O3)ccc21)[C@@H](C)O)C(C)C)C(N)=O` [compound 4], the IC50 (usually the concentration at which inhibition is half-maximal) in the data set on A431 cells stood at 0.0747 ± 0.00665 µM; with HEK293 cells, 0.0311 ± 0.00621 µM; in the data set with SW480 cells it was 0.181 ± 0.0259 µM. Further, in data set [1], the metabolised at 72 h, 8.6 μM is less than 10%. Also, the half-life (usually the time in which the quantity being followed falls by half) at 173 µM is 66 s in data set [2] (acetate and phosphate buffer pH 4.9, read-out: half-life, endosome-like conditions); approximately 12 s in data set [2] (phosphate buffer pH 7.4, read-out: estimated half-life, cytoplasm-like conditions). The “residual conjugate 1 min after addition, cytoplasm-like conditions” value in data set [2] (phosphate buffer pH 7.4, 1 min) is recorded as “no residual conjugate was detectable”.
